The values below are quoted from earlier work in patent US7300682B2, “Method of preparation and use of coconut water in mamalian tissue nourishment growth and healthy maintenance” (Sabinsa Corporation, priority 2000, dated 2007).

In this data set the test system is Abelmoschus esculetus L and Solanum gilo L. The conditions noted are these: 100 mg/L.

Each structure is given as a SMILES string.

For the compound `C=C1C[C@]23C[C@@]1(O)CC[C@H]2[C@@]12C=C[C@H](O)[C@@](C)(C(=O)O1)[C@H]2[C@@H]3C(=O)O` [GA3, gibberelic acid], the “effect on plant height, yield, chlorophyll and vitamin contents” value is “significantly effective”.
